Data from patent US9359346B2, “Benzamide derivative and use thereof” (VIVOZON, INC., priority 2011, dated 2016).
Where two headings read alike, the source gives them in different places.

What was measured:
GlyT2 = molecular target: T1, GlyT2 (Rattus norvegicus, UniProt P58295); experiment: FLIPR membrane potential assay for GlyT2 target activity (T-rex-293-rGlyT2 cells); type: cell-based; conditions: read-out: GlyT2 % inhibition
T1 construct: expressed in transfected cells
T1 sequence (P58295 1-799): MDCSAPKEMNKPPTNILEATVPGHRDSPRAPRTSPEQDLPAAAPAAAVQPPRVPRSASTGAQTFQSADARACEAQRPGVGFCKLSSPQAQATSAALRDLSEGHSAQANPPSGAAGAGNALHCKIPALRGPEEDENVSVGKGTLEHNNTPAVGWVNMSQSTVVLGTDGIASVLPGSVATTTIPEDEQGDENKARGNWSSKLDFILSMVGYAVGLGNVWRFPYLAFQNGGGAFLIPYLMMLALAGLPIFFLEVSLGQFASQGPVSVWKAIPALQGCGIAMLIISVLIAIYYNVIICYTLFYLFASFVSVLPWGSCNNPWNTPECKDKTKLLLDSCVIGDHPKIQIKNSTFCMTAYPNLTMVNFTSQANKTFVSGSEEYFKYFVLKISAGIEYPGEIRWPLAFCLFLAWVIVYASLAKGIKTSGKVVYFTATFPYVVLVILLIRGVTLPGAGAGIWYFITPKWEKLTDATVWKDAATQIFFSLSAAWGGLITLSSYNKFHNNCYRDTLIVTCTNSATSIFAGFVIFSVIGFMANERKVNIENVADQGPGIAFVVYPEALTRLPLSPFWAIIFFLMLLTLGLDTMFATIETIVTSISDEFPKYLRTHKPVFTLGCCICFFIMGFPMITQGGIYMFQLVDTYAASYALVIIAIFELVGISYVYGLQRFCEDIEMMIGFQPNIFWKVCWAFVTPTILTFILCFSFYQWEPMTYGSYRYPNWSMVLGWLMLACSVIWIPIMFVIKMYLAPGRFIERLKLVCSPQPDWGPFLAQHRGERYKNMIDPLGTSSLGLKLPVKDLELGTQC
Experimental: GlyT2 (Glycine transporter type 2) is an electrogenic carrier associated with Na^+/Cl^− ion transportation, primarily distributed around the spinal cord part, and has an important role in the transfer of a pain signal in the spinal cord.
In order to identify the fact that the novel compound of the present invention has GlyT2 targeting activity, a membrane potential assay was performed. FLIPR Membrane Potential Assay is used to measure ion channel modulation caused by an increase or decrease in fluorescence signal due to variations of cellular membrane potential.
First, pcDNA4/TO vector encoding GlyT2 of the rat in HEK293 cell was transfected to prepare a stable recombinant cell line, i.e., T-rex-293-rGlyT2. A […] (Greiner #655090) coated with poly-D-lysine was prepared, and the above recombinant cells (T-rex-293-rGlyT2) were seeded at 3.2×10^4/well therein using a medium containing 15 μg/ml of tetracycline. After this, incubation was conducted at 37° C. for 48 hours under 5% CO2 conditions to express GlyT2. 10 ml of assay buffer (1×HBSS, 20 mM HEPES, pH 7.4) was added to a blue dye solution and sufficiently dissolved therein to prepare a membrane potential dye solution. After removing the medium from the well showing GlyT2 expression, the membrane potential dye solution was added to the well in an amount of 100 μl/well and incubated for 20 minutes.
According to the FLIPR Membrane Potential Assay kit's protocol, SoftMax Pro Software of FlexStation 3 software (Molecular Devices, US) was set up. An extent of GlyT2 expression was determined such that the extent of cellular membrane depolarization relative to an administered amount of glycine during glycine treatment is indicated in relative fluorescence units (RFU), and RFU (Max-Min) is calculated by subtracting the minimum value from the maximum value of RFU. After firstly treating 10 uM of the novel compound according to the present invention, glycine was treated and RFU (Max-Min) for glycine administration was determined. Then, with the determined result, the extent of depolarization inhibition (% inhibition) was assessed for each compound, compared to a positive control.
The positive control used herein was ORG25543 (500 nM) having strong inhibitory efficacy specific to GlyT2.
For GlyT2 inhibitory efficacy, the efficacy of the compound ORG25543 (500 nM) was defined as 100%. Similarly, for 5HT2A inhibitory efficacy, the efficacy of MDL11939 (100 nM) was defined as 100%. Therefore, the target inhibitory efficacy of each compound was indicated in a relative value compared to the above defined efficacy.

5HT2A = 5HT2A (Homo sapiens, UniProt P28223); experiment: FLIPR calcium assay for 5HT2A target activity (transfected HEK293 cells); type: cell-based
[1] = system: neuropathic pain model (Chung model); experiment: Neuropathic pain model (Chung model, SNL), paw withdrawal threshold; type: in vivo, rat; conditions: for pain suppression efficacy, antagonist alone: single administration, ORG-25543 10 or 20 mg/kg, FIG. 25(a)
formalin model = experiment: Formalin pain model, licking and shaking; type: in vivo, rat; conditions: for pain behavior (licking and shaking) induced by formalin: 12.5, 25 and 50 mg/kg, 5% formalin i.pl., FIGS. 23 and 24; for pain relieving effect, antagonist alone: single administration, FIG. 26(a)
[2] = system: serotonin-derived itching; experiment: Itching model, serotonin-derived itching; type: in vivo, rat; conditions: 50 mg/kg s.c.; serotonin 25 μg/50 μl intradermal; vs naloxone 5 mg/kg intraperitoneal
[3] = system: poly-L-arginine-derived itching; experiment: Itching model, poly-L-arginine-derived itching; type: in vivo, rat; conditions: 50 mg/kg s.c.; poly-L-arginine 200 μg/50 μl intradermal; vs naloxone 5 mg/kg intraperitoneal
[4] = 10 uM compound, then glycine, relative to ORG25543 (500 nM) defined as 100%
[5] = subcutaneous 50 mg/kg or oral 100 mg/kg, gabapentin 55 to 70 mg/kg intraperitoneal, FIGS. 1 to 22
[6] = HEK293, read-out: 5HT2A % inhibition

Chain of 5HT2A (P28223 whole entry, species assumed): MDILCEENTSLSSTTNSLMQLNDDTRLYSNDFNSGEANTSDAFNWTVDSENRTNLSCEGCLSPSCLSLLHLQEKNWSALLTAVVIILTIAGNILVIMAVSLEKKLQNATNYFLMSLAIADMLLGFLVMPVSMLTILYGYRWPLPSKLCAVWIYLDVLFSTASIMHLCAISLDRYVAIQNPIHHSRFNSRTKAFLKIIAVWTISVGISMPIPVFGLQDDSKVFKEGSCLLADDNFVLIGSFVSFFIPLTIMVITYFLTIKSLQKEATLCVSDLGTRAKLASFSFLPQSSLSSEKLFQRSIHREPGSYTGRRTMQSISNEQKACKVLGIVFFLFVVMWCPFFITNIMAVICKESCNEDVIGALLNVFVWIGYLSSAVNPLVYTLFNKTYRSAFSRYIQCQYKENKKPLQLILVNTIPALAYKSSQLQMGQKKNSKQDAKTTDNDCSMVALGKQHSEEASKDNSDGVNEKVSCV

Compound	inhibition at 10 µM (GlyT2; [4])	analgesic efficacy compared to GBP positive control [1, 5]	pain behavior (licking and shaking) induced by formalin (formalin model)	itching behavior (number and duration of scratching) induced by serotonin [2]	itching behavior (number and duration of scratching) induced by poly-L-arginine [3]	pain suppression efficacy, antagonist alone [1]	pain relieving effect, antagonist alone (formalin model)	inhibition at 10 µM (GlyT2)	inhibition at 10 µM (5HT2A; [6])	other results
CCCCOc1c(OC)cc(C(=O)NCC2(NC)CCOCC2)cc1OC [VVZ-068]	105%	analgesic efficacy substantially equal to 0 °C superior to GBP	suppressing pain behavior induced by formalin	suppressing itching behavior	suppressing itching behavior	–	–	–	–	inhibition at 10 µM (5HT2A; HEK293, 10 uM compound, then serotonin, relative to MDL11939 (100 nM) defined as 100%, read-out: 5HT2A % inhibition): 69.1%
COc1cc(C(=O)NCC2(N(C)C)CCCC2)cc(OC)c1OCc1ccccc1 [ORG-25543, reference compound]	–	–	–	–	–	did not show pain suppression efficacy	no or very little pain relieving effect	–	–	pain suppression efficacy, antagonist alone ([1]; listed as ORG2553): no or very little pain relieving effect
CN(C)C1(CNC(=O)c2ccc(OCc3ccccc3)cc2)CCOCC1 [VVZ-038]	–	analgesic efficacy substantially equal to 0 °C superior to GBP	–	–	–	–	–	108%	96.1%	–
CCCCOc1c(OC)cc(C(=O)NCC2(N(C)C)CCOCC2)cc1OC [VVZ-005]	–	–	suppressing pain behavior induced by formalin	suppressing itching behavior	suppressing itching behavior	–	–	101%	61.2%	analgesic efficacy compared to GBP positive control ([1]; rat, in vivo): analgesic efficacy substantially equal to 0 °C superior to GBP
OC(c1ccccc1)C1CCN(CCc2ccccc2)CC1 (centres unmarked) [MDL 11,939, reference compound]	–	–	–	–	–	no or very little pain relieving effect	no or very little pain relieving effect	–	–	–
CCCCOc1c(OC)cc(C(=O)NCC(c2ccc(OC)cc2)N(C)C)cc1OC (centres unmarked) [VVZ-024]	96.7%	analgesic efficacy substantially equal to 0 °C superior to GBP	–	–	–	–	–	–	70.5%	–
